Source: ChEMBL document CHEMBL1201862, “PubChem BioAssay data set” (2004)
Blank lines part the entries; values can stand above or below the compound they belong to. Calls of active or inactive are those of the source.

Legend:
[1] = inhibitors of intracellular T. cruzi replication, confirmation, NIH3T3 host cells, beta-gal luminescence (AID 2044); format: functional, cell-based;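 note: intracellular parasites grown in NIH/3T3 mouse fibroblasts as host cells; luminescent beta-galactosidase reporter signal from transgenic T. cruzi replicating inside host cells; inhibitors lower the luminescence signal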
[2] = cytotoxicity toward NIH3T3 fibroblasts, dose response, counter-screen, cell-based, ATP luminescence, mouse fibroblasts (AID 2010); format: functional;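 note: cells exposed to compound for about 90 hours before reading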
[3] = NIH-3T3 fibroblast cytotoxicity, dose response, cytotoxicity control, cell-based, fluorescence, Alamar Blue, secondary assay (AID 2327); format: functional;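 note: NIH-3T3 mouse fibroblasts cultured with fluconazole at 8 µg/mL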
[4] = C. albicans growth with fluconazole, confirmation, fluorescence, retest (AID 2467); format: functional, cell-based
[5] = biological target: T1, Heat shock factor protein 1 (Mus musculus, UniProt P38532); test: inhibition of MG132-induced HSE-luciferase signal, confirmation, cell-based, NIH3T3, luminescence, dose retest (AID 2382); format: functional;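 note: NIH3T3 fibroblasts with HSF1-driven luciferase reporter stressed by proteasome inhibitor MG132; luminescence from HSF1-driven luciferase expression after 8 hours of MG132 stress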
T1 sequence (P38532 whole entry): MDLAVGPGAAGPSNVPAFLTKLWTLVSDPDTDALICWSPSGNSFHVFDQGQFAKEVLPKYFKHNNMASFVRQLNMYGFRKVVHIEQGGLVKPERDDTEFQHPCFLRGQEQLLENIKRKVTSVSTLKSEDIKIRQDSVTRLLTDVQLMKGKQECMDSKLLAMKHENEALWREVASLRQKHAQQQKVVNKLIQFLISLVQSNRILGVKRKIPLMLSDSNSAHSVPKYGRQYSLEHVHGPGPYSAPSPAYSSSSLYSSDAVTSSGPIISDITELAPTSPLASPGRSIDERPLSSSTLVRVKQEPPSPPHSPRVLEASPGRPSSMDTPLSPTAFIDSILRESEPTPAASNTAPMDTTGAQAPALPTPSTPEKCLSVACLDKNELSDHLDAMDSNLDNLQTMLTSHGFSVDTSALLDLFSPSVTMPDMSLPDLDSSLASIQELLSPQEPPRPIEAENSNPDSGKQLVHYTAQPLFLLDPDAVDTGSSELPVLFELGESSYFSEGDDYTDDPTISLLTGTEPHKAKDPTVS

[6] = HEp-2 cell cytotoxicity, dose response, cytotoxicity control for RSV inhibitor project, HTS (AID 2410); format: functional; details: human respiratory syncytial virus
Cytochrome P450 2C19 = Cytochrome P450 2C19 (Homo sapiens, UniProt P33261); test: Cytochrome panel assay with activity outcomes. Panel member name: p450-cyp2c19 Compounds with AC50 equal or less than 10 uM are considered active; format: functional
Cytochrome P450 2C19, sequence (P33261 whole entry): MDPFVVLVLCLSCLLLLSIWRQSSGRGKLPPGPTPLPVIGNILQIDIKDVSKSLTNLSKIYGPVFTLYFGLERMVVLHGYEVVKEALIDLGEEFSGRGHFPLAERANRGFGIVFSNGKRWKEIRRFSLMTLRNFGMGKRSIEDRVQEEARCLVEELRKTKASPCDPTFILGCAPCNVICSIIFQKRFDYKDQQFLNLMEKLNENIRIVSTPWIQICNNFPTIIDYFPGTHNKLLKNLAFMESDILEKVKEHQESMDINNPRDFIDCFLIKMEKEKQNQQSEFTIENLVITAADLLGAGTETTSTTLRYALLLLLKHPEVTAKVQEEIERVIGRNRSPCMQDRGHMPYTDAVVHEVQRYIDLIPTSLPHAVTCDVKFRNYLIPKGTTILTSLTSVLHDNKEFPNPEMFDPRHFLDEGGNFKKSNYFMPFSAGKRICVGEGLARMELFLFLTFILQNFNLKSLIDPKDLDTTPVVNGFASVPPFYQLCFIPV

Cytochrome P450 2C9 = Cytochrome P450 2C9 (Homo sapiens, UniProt P11712)
Cytochrome P450 2C9, sequence (P11712 whole entry): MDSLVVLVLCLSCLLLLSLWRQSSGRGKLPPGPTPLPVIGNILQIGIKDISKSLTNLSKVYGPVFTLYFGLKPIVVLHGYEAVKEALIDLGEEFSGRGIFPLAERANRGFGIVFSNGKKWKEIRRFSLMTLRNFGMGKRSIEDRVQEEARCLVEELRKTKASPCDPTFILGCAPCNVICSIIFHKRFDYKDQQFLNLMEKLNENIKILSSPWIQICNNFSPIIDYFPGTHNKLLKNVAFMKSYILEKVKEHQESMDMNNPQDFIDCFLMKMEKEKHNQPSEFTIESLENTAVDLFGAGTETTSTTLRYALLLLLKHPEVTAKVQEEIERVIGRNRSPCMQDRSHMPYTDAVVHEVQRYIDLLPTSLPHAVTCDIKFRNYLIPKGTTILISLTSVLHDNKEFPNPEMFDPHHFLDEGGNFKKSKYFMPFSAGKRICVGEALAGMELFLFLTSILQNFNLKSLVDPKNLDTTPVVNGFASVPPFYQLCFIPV

[7] = test system: Streptococcus sp. 'group A'; test: growth inhibition of control SK(-) GAS strain, dose response, counter-screen for streptokinase expression inhibitor project, luminescence, kanamycin, BacTiterGlo, confirmation (AID 1900); format: functional, organism-based
Streptococcus = test: Group A Streptococcus viability loss, dose response, counter-screen for streptokinase expression inhibitor project, luminescence, BacTiterGlo (AID 1915); format: functional, organism-based;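 note: potency for reduction of bacterial viability or growth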

Compound: Cc1c(O)cccc1C(=O)N[C@@H](CSc1ccccc1)[C@H](O)CN1C[C@H]2CCCC[C@H]2C[C@H]1C(=O)NC(C)(C)C
- EC50 [1]: 3.42 µM (active)
- EC50 [2]: > 60 µM (not active)

Compound: O=C(Cc1cccs1)Nc1cccc(-c2nc3ccccc3[nH]2)c1
- EC50 [3]: > 150 µM (inconclusive)
- EC50 [4]: 3.52 µM (active)

- EC50 [5]: > 195 µM (not active)
Compound: Cn1c(=O)c2cn(-c3ccc4c(c3)OCCO4)cc2n(C)c1=O

Compound: CCC(=O)Nc1ccccc1C(=O)OCC(=O)c1ccc2ccccc2c1
- CC50 [6]: 25 µM (active)

- AC50 (Cytochrome P450 2C19): inconclusive
Compound: Nc1ccn([C@H]2O[C@@H](COP(=O)(O)O)[C@@H](O)[C@H]2O)c(=O)n1

- AC50 (Cytochrome P450 2C9): 20 µM (inconclusive)
Compound: O=C(NNC(=O)c1ccccc1O)c1ccc(Cl)cc1

Compound: CCn1c2ccc(F)cc2c2nnc(SCCN3CCCCC3)nc21
- EC50 [1]: 0.777 µM (active)
- EC50 [2]: > 60 µM (not active)

- EC50 [5]: > 195 µM (not active)
Compound: CC(C)(C)NS(=O)(=O)c1cc2c3c(c1)CCN3C(=O)CC2

Compound: COc1ccccc1Cn1c(=O)c2ccccc2n2c(Sc3ncnc4sccc34)nnc12
- CC50 [6]: 19.6 µM (active)

Compound: CSc1cc(-c2ccccc2)n(C)c(=O)c1C#N
- EC50 [3]: 117 µM (active)
- EC50 [4]: > 38 µM (not active)

- AC50 (Cytochrome P450 2C19; read-out: AC50): 17.8 µM (inconclusive)
Compound: CCNc1nc(NCC)nc(ON=C(C)C)n1

Compound: CC(C)(C)c1csc(NC(=O)Cn2cnc3ccccc3c2=O)n1
- EC50 [3]: > 150 µM (inconclusive)
- EC50 [4]: > 38 µM (not active)

Compound: CCOc1ccc(CN2CCC(C(=O)N3CCN(c4ccccc4F)CC3)CC2)cc1OC
- EC50 [1]: 0.182 µM (active)
- EC50 [2]: > 30 µM (not active)

Compound: CC(C)C[C@H](NC(=O)c1[nH]cnc1C(=O)N[C@@H](Cc1ccccc1)C(=O)OC(C)(C)C)C(=O)OC(C)(C)C
- EC50 [7]: 2.33 µM (active)
- EC50 (Streptococcus): 5.07 µM (active)

Compound: CC(=O)NC12CC3CC(C1)CC(C(=O)Oc1ccc(N(C)S(=O)(=O)c4cc(C)ccc4C)cc1)(C3)C2
- CC50 [6]: 34.2 µM (active)

Compound: Cn1c(=O)c(=O)n(C)c2cc(S(=O)(=O)NCCN3CCN(c4ccccc4F)CC3)ccc21
- EC50 [1]: 0.496 µM (active)
- EC50 [2]: > 60 µM (not active)

- EC50 [5]: > 195 µM (not active)
Compound: Nc1cccc(/C=C/C(=O)O)c1

- AC50 (Cytochrome P450 2C19; read-out: AC50): 22.4 µM (inconclusive)
Compound: CCCCNC(=O)NS(=O)(=O)c1cnccc1Sc1ccc(Cl)cc1

- AC50 (Cytochrome P450 2C9): 28.2 µM (inconclusive)
Compound: Cc1nc(S(=O)(=O)NC2CCCCC2)c(C#N)c(C)c1Cl

- EC50 [5]: > 195 µM (not active)
Compound: COc1ccc(C(=O)C2CCCN(S(=O)(=O)c3ccccc3F)C2)c(C)c1 (centres undefined)

Compound: CCN1C(=O)/C(=C2/C(=O)Nc3ccccc32)c2cc(Br)ccc21
- EC50 [1]: 1.3 µM (active)
- EC50 [2]: > 60 µM (inconclusive)

Compound: O=[N+]([O-])c1ccc(CSCc2ccc(Cl)cc2)cc1
- AC50 (Cytochrome P450 2C9): 7.94 µM (inconclusive)

- EC50 [5]: > 195 µM (not active)
Compound: Cc1cccc(OCC(=O)OC2CCN(C)CC2)c1

Compound: Cc1nc2c(=O)oc3ccccc3c2n1-c1ccccc1
- EC50 [3]: > 150 µM (inactive)
- EC50 [4]: 2.15 µM (active)

- EC50 [5]: > 195 µM (not active)
Compound: COC(=O)c1cccc(NC(=O)CN2CCN(Cc3ccccc3)CC2)c1

Compound: CCNc1nc(NC(C)C)nc(N2CC(=O)N(CC(=O)OCC)C2=N)n1
- CC50 [6]: 25.2 µM (active)

Compound: COc1ccc(CCNC(=O)[C@H](C)N2C(=O)N3CCc4c([nH]c5ccccc45)[C@@]3(C)C2=O)cc1
- EC50 [1]: 1.97 µM (active)
- EC50 [2]: > 60 µM (not active)

Compound: O=C(CCc1ccc(Oc2cc([N+](=O)[O-])cc([N+](=O)[O-])c2)cc1)NC1CCCC1
- EC50 [1]: 0.106 µM (active)
- EC50 [2]: > 30 µM (not active)

Compound: O=C(CSCc1ccc(Cl)cc1)Nc1cc([N+](=O)[O-])ccc1O
- EC50 [3]: > 150 µM (inactive)
- EC50 [4]: 0.491 µM (active)

Compound: N#Cc1ccc(OCCOCCNC2CCCC2)cc1
- EC50 [1]: 0.2 µM (active)
- EC50 [2]: > 60 µM (not active)

Compound: CC1(C)Cc2c(C#N)c(SCCOc3ccccc3)nc(N3CCOCC3)c2CO1
- EC50 [1]: 1.49 µM (active)
- EC50 [2]: > 60 µM (not active)

Compound: C=CCN(C(=O)CSC1=NC(=O)CN1C(C)=O)c1nc(C)c(-c2ccccc2)s1
- EC50 [1]: 1.58 µM (active)
- EC50 [2]: > 30 µM (not active)

- AC50 (Cytochrome P450 2C9): 39.8 µM (inconclusive)
Compound: c1ccc(CSc2nnc(-c3sccc3-n3cccc3)o2)cc1
